Here are results for 18 molecules from patent publication US20200347043A1, “MODULATORS OF THE INTEGRATED STRESS PATHWAY” (Calico Life Sciences LLC, priority 2019, published 2020).

In the assay the test system is HEK293T cells carrying the ATF4 luciferase reporter. Put plainly: ATF4-Luc assay (in vitro model of VWMD). Type of assay: cell-based, human. Conditions: 1 μg/mL tunicamycin, 7 hours, One Glo luminescence. A digest of the protocol:
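Stable HEK293T line expressing firefly luciferase behind the human ATF4 5′-UTR, treated with 1 μg/mL tunicamycin plus compound for 7 hours. Luminescence read with One Glo; EC50 determined.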

pEC50: −log10 of the molar value. Bounds are passed on as bounds.

As for `O=C1C[C@H](C(=O)NC23CC(C(=O)N[C@H]4C[C@@H](OC(F)(F)F)C4)(C2)C3)Oc2ccc(Cl)cc21` [Compound 216, (2R)-6-chloro-4-oxo-N-(3-{[cis-3-(trifluoromethoxy)cyclobutyl]carbamoyl}bicyclo[1.1.1]pentan-1-yl)-3,4-dihydro-2H-1-benzopyran-2-carboxamide], the negative-log EC50 (pEC50) (Homo sapiens, HEK-293T) was less than 5.70.
Same read-out and setting: the value for `O=C(CO[C@H]1C[C@@H](OC(F)(F)F)C1)NC12CC(NC(=O)C3CC(=O)c4cc(Cl)ccc4O3)(C1)C2` (stereo partly drawn) [Compound 113, 6-chloro-4-oxo-N-[3-(2-{[(1s,3s)-3-(trifluoromethoxy)cyclobutyl]oxy}acetamido)bicyclo[1.1.1]pentan-1-yl]-3,4-dihydro-2H-1-benzopyran-2-carboxamide] was 7.30 to 8.00; that for `CN(C(=O)COc1ccc(Cl)c(F)c1)[C@H]1CC[C@H](NC(=O)[C@H]2C[C@@H](O)c3cc(Cl)ccc3O2)CC1` [Compound 102, (2R,4R)-6-chloro-N-[(1r,4R)-4-{[(4-chloro-3-fluorophenoxy)acetyl](methyl)amino}cyclohexyl]-4-hydroxy-3,4-dihydro-2H-1-benzopyran-2-carboxamide] was 7.30 to 8.00; that for `O=C(NC12CC(n3ccc(-c4ccc(Cl)c(F)c4)c3)(C1)C2)[C@@H]1C[C@@H](O)c2cc(Cl)ccc2O1` [Compound 243, (2S,4R)-6-chloro-N-{3-[3-(4-chloro-3-fluorophenyl)-1H-pyrrol-1-yl]bicyclo[1.1.1]pentan-1-yl}-4-hydroxy-3,4-dihydro-2H-1-benzopyran-2-carboxamide] was 6.60 to 7.30.
In the case of `O=C(COc1ccc(Cl)c(F)c1)NC12CC(c3nnc([C@@H]4C[C@H](O)c5cc(Cl)ccc5O4)o3)(C1)C2` (relative stereo) [Compound 253, 2-(4-chloro-3-fluorophenoxy)-N-(3-{5-[(2S*,4S*)-6-chloro-4-hydroxy-3,4-dihydro-2H-1-benzopyran-2-yl]-1,3,4-oxadiazol-2-yl}bicyclo[1.1.1]pentan-1-yl)acetamide], the negative logarithm of the EC50 (pEC50) (Homo sapiens, HEK-293T) is 7.30 to 8.00.
For the molecule `O=C(N[C@H]1CC[C@H](C(=O)N2CC(c3ccc(Cl)cc3)C2)CC1)[C@H]1C[C@@H](O)c2cc(Cl)ccc2O1` [Compound 174, (2R,4R)-6-chloro-N-{trans-4-[3-(4-chlorophenyl)azetidine-1-carbonyl]cyclohexyl}-4-hydroxy-3,4-dihydro-2H-1-benzopyran-2-carboxamide], the pEC50 (Homo sapiens, HEK-293T) was greater than 8.00.
For `O=C(NC12CC(n3cnc(-c4ccc(Cl)c(F)c4)c3)(C1)C2)[C@H]1C[C@@H](O)c2cc(Cl)ccc2O1` [Compound 282, (2R,4R)-6-chloro-N-{3-[4-(4-chloro-3-fluorophenyl)-1H-imidazol-1-yl]bicyclo[1.1.1]pentan-1-yl}-4-hydroxy-3,4-dihydro-2H-1-benzopyran-2-carboxamide], under “Homo sapiens, HEK-293T”, the negative logarithm of the EC50 (pEC50) is greater than 8.00.
Consider `O=C(NC12CC(c3cc(-c4ccc(Cl)cc4)on3)(C1)C2)[C@H]1C[C@@H](O)c2cc(Cl)ccc2O1` [Compound 256, (2R,4R)-6-chloro-N-{3-[5-(4-chlorophenyl)-1,2-oxazol-3-yl]bicyclo[1.1.1]pentan-1-yl}-4-hydroxy-3,4-dihydro-2H-1-benzopyran-2-carboxamide], for which the pEC50 (Homo sapiens, HEK-293T) is greater than 8.00.
As for `O=C(NC12CC(c3cnn(-c4ccc(C(F)(F)F)nc4)c3)(C1)C2)[C@H]1C[C@@H](O)c2cc(Cl)ccc2O1` [Compound 262, (2R,4R)-6-chloro-4-hydroxy-N-(3-{1-[6-(trifluoromethyl)pyridin-3-yl]-1H-pyrazol-4-yl}bicyclo[1.1.1]pentan-1-yl)-3,4-dihydro-2H-1-benzopyran-2-carboxamide], where the note is “Homo sapiens, HEK-293T”, the pEC50 is greater than 8.00.
Still for that read-out and setting: the value for `O=C(NC12CC(c3cnn(-c4ccc(Cl)cc4)c3)(C1)C2)[C@@H]1C[C@@H](O)c2cc(Cl)ccc2O1` [Compound 265, (2S,4R)-6-chloro-N-{3-[1-(4-chlorophenyl)-1H-pyrazol-4-yl]bicyclo[1.1.1]pentan-1-yl}-4-hydroxy-3,4-dihydro-2H-1-benzopyran-2-carboxamide] was 7.30 to 8.00.
For the molecule `O=C(N[C@@H]1CC[C@@H](C(=O)N2CC(Oc3ccc(Cl)cc3)C2)OC1)[C@H]1C[C@@H](O)c2cc(Cl)ccc2O1` (racemic) [Compound 122, (2R,4R)-6-chloro-N-(3R,6S)-6-[3-(4-chlorophenoxy)azetidine-1-carbonyl]oxan-3-yl)-4-hydroxy-3,4-dihydro-2H-1-benzopyran-2-carboxamide and (2S,4S)-6-chloro-N-{(3R,6S)-6-[3-(4-chlorophenoxy)azetidine-1-carbonyl]oxan-3-yl}-4-hydroxy-3,4-dihydro-2H-1-benzopyran-2-carboxamide], the pEC50 (Homo sapiens, HEK-293T) was 7.30 to 8.00.
The same measure, in the same setting: the value for `O=C(N[C@H]1CC[C@H](N2CCN(c3ccc(Cl)c(F)c3)C2=O)CC1)[C@H]1C[C@@H](O)c2cc(Cl)ccc2O1` [Compound 207, (2R,4R)-6-chloro-N-{trans-4-[3-(4-chloro-3-fluorophenyl)-2-oxoimidazolidin-1-yl]cyclohexyl}-4-hydroxy-3,4-dihydro-2H-1-benzopyran-2-carboxamide] was greater than 8.00; that for `O=C(NC12CC(c3nnc(COc4ccc(Cl)c(F)c4)o3)(C1)C2)[C@H]1C[C@@H](O)c2cc(Cl)ccc2O1` [Compound 110, (2R,4R)-6-chloro-N-(3-{5-[(4-chloro-3-fluorophenoxy)methyl]-1,3,4-oxadiazol-2-yl}bicyclo[1.1.1]pentan-1-yl)-4-hydroxy-3,4-dihydro-2H-1-benzopyran-2-carboxamide] was greater than 8.00.
Consider `O=C(CO[C@H]1C[C@@H](OC(F)(F)F)C1)NC12CC(NC(=O)[C@@H]3C[C@H](O)c4cc(Cl)ccc4O3)(C1)C2` [Compound 295, (2S,4S)-6-chloro-4-hydroxy-N-[3-(2-{[cis-3-(trifluoromethoxy)cyclobutyl]oxy}acetamido)bicyclo[1.1.1]pentan-1-yl]-3,4-dihydro-2H-1-benzopyran-2-carboxamide], for which the pEC50 (Homo sapiens, HEK-293T) is 7.30 to 8.00.
Regarding `O=C(COc1ccc(Cl)c(F)c1)NC1CC2(C1)CN(C(=O)C1CC(=O)c3cc(Cl)ccc3O1)C2` (stereo not drawn) [Compound 144, 2-(4-chloro-3-fluorophenoxy)-N-[2-(6-chloro-4-oxo-3,4-dihydro-2H-1-benzopyran-2-carbonyl)-2-azaspiro[3.3]heptan-6-yl]acetamide], for the setting “Homo sapiens, HEK-293T”, the negative logarithm of the EC50 (pEC50) was 6.60 to 7.30.
Regarding `O=C(NC12CC(c3ncc(-c4ccc(Cl)cc4)o3)(C1)C2)[C@@H]1C[C@@H](O)c2cc(Cl)ccc2O1` [Compound 255, (2S,4R)-6-chloro-N-{3-[5-(4-chlorophenyl)-1,3-oxazol-2-yl]bicyclo[1.1.1]pentan-1-yl}-4-hydroxy-3,4-dihydro-2H-1-benzopyran-2-carboxamide], where the note is “Homo sapiens, HEK-293T”, the negative logarithm of the EC50 (pEC50) was 7.30 to 8.00.
Turning to `O=C(NC12CC(N3CCC(c4ccc(Cl)cc4)C3=O)(C1)C2)[C@H]1C[C@@H](O)c2cc(Cl)ccc2O1` (single isomer, unassigned) [Compound 226, (2R,4R)-6-chloro-N-{3-[(3S*)-3-(4-chlorophenyl)-2-oxopyrrolidin-1-yl]bicyclo[1.1.1]pentan-1-yl}-4-hydroxy-3,4-dihydro-2H-1-benzopyran-2-carboxamide], the pEC50 was 5.70 to 6.30.
For `O=C(NC12CC(n3cnc(-c4ccc(F)c(F)c4)c3)(C1)C2)[C@@H]1C[C@H](O)c2cc(Cl)ccc2O1` [Compound 180, (2S,4S)-6-chloro-N-{3-[4-(3,4-difluorophenyl)-1H-imidazol-1-yl]bicyclo[1.1.1]pentan-1-yl}-4-hydroxy-3,4-dihydro-2H-1-benzopyran-2-carboxamide], the negative-log EC50 (pEC50) (Homo sapiens, HEK-293T) is 6.60 to 7.30.

In general, pEC50 refers to the EC50 on a negative log10 scale, so that one unit is a factor of ten.
